PubChem BioAssay (NCI)
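Grown in 96-well plates, cells were treated for 48 hours with each compound at five concentrations. Insufficient inhibition: endpoint recorded as highest concentration tested. GI50: concentration for 50% inhibition of growth. TGI marks complete inhibition of growth.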

Key:
Assay in all cases: NCI-60 cell line screen, 48 h
A549 NSCLC = test system: A549 NSCLC
CAKI-1 renal = test system: CAKI-1 renal
EKVX NSCLC = test system: EKVX NSCLC
HCC-2998 colon = test system: HCC-2998 colon
HCT-15 colon = test system: HCT-15 colon
HOP-92 NSCLC = test system: HOP-92 NSCLC
MCF7 breast = test system: MCF7 breast
NCI-H522 lung = test system: NCI-H522 lung
NCI/ADR-RES ovarian = test system: NCI/ADR-RES ovarian
SNB-75 CNS = test system: SNB-75 CNS

Compound | GI50 (A549 NSCLC) [nM] | TGI (A549 NSCLC) [nM] | GI50 (CAKI-1 renal) [nM] | TGI (CAKI-1 renal) [nM] | GI50 (EKVX NSCLC) [nM] | TGI (EKVX NSCLC) [nM] | GI50 (HCC-2998 colon) [nM] | TGI (HCC-2998 colon) [nM] | GI50 (HCT-15 colon) [nM] | TGI (HCT-15 colon) [nM] | GI50 (HOP-92 NSCLC) [nM] | TGI (HOP-92 NSCLC) [nM] | GI50 (MCF7 breast) [nM] | TGI (MCF7 breast) [nM] | GI50 (NCI-H522 lung) [nM] | TGI (NCI-H522 lung) [nM] | GI50 (NCI/ADR-RES ovarian) [nM] | TGI (NCI/ADR-RES ovarian) [nM] | GI50 (SNB-75 CNS) [nM] | TGI (SNB-75 CNS) [nM]
Oc1ccc2ccccc2c1N=Nc1ccccn1 | 2950 | > 59300 | 138 | 906 | 449 | 43400 | 2350 | > 100000 | 497 | > 100000 | 3020 | > 100000 | 527 | > 100000 | 1970 | 43000 | 575 | 4640 | 7490 | > 86700
Clc1ccc2c(NCCNc3ccnc4cc(Cl)ccc34)ccnc2c1 |  | 35600 |  | 34800 |  | 41400 |  | 28500 |  | 31000 |  | 38500 |  | 36000 |  | 35200 |  | > 100000 |  | 50300
CCOC(=O)c1c(C)[nH]c(/C=C2\N=C(c3ccc[nH]3)C=C2OC)c1C | 45.7 | 1280 | 46.1 | 795 | 469 | 3810 | 49.7 | 1180 | < 10 | 1070 | 32.3 | 79.2 | 46.9 | 1300 |  |  | 45.7 | 3450 |  | 
COc1cc2cc(C(=O)N3CC(CCl)c4c3cc(N(C)C)c3ccccc43)[nH]c2c(OC)c1OC (centres undefined) |  |  |  | < 10 |  | 24.5 |  | 80.9 |  | > 41400 |  | > 53900 |  |  |  | 26.1 |  |  |  | 25.2
COc1ccc(Cl)cc1NC(=O)c1c(NC(=O)C(F)(F)C(F)(F)F)sc2c1CCCCC2 | 2540 | > 100000 | 1030 | 4860 |  |  | 1880 | > 100000 |  |  | 263 | 947 | 1680 | 8680 | 588 | 7680 | 1800 | 8370 | 1490 | 5640
